# Like-named read-outs stand apart in the source and are kept apart here.
# What was measured:
# [1] = cited from earlier work
# [2] = cited from earlier work; remark: listed apart in the source
# [3] = Analyte stability in brain homogenate; format: physicochemical, human; conditions: for Freeze-thaw stability, Accuracy / Freeze-thaw stability, Difference: 3 cycles; for Freeze-thaw stability, Difference / Benchtop stability, Difference / Processed sample stability, Difference / Autosampler stability (5 °C), Difference / Long-term stability (−20 °C), Difference: vs freshly processed QC; for Benchtop stability, Accuracy / Benchtop stability, Difference: 6 h; for Processed sample stability, Accuracy / Processed sample stability, Difference: 22 h; for Autosampler stability (5 °C), Accuracy / Autosampler stability (5 °C), Difference: 96 h; for Long-term stability (−20 °C), Difference: 39 days
# Procedure: The stability of the analytes was studied under various storage and processing conditions. […] Short- and long-term stability studies of all analytes were conducted in human blank plasma and brain homogenate under several storage conditions. Analyte stability in biological matrices was analyzed using freshly prepared calibration standards and QC samples. The percentage difference between the stability and freshly processed QC was also assessed. Re-injection reproducibility was evaluated within the sample stability period in the autosampler. Analytes were considered stable if the accuracy at each level was ±15.0% of the nominal value. Additionally, the difference from corresponding comparison QC samples must be within ±15.0%.
# [4] = Equilibrium dialysis, fraction unbound in patient brain tumor tissue; format: in vitro ADME; conditions: human, five patients, 16 h equilibrium dialysis
# Procedure: (§1) Equilibrium dialysis was employed to measure the fraction unbound of analytes in plasma, brain, and brain tumor tissue homogenates using 96-well DispoEquilibrium Dialyzer plates with a 10 kDa cut-off regenerated cellulose membrane. Dialysis was performed using 180 μL of human plasma or tissue homogenate against an equal volume of PBS (pH 7.4) in a dual-plate rotator (Harvard Apparatus, Holliston, MA, USA). Equilibrium time was initially optimized by analyzing samples after 2, 4, 6, 8, 16, and 24 h of dialysis at concentrations of 20 and 200 nM in human plasma and brain homogenate. The dialysates were collected and processed as described in Sections 2.3.2 and 2.3.3. The recovery of analytes was calculated as the ratio of analyte concentration after dialysis (sum of concentrations found in PBS and matrix fractions) to the total concentration to ensure the reliability and reproducibility of the assay. The experiments were repeated at least three times, and each sample in triplicate and average fraction unbound values were determined.
# (§2) The fraction unbound in plasma (fu, plasma) and tissue homogenate (fu, hom) was evaluated as the analyte concentration ratio of post-dialysis PBS (cu) to post-dialysis plasma (cp, Eq. (1)) or homogenate (chom, Eq. (2)).(1) fu,plasma =cu/cp (2) fu,hom =cu/chom
# (§3) The fraction unbound in the actual tissue (fu, tissue) was obtained by incorporating the unbound fraction in the tissue homogenate (fu, hom) and the dilution factor (Df) into Eq. (3).(3) fu,tissue = fu,hom/[Df - (Df - 1)fu,hom]
# (§4) Unbound drug levels in the actual plasma and brain tumor tissue were measured using dialysis for 16 h to reach equilibrium. The mean of fraction unbound values determined in five patient samples was calculated.
# The validated bioanalytical method was employed to investigate analytes pharmacokinetics in the plasma, brain tumor, and CSF in GBM patients (ClinicalTrials.gov identifier: NCT04391595). The protocol was reviewed and approved by the Institutional Review Board of the Barrow Neurological Institute, St. Joseph's Hospital and Medical Center (Phoenix, AZ, USA). All patients enrolled in the trial provided written informed consent. […] Blood, CSF, and GBM tissue (including gadolinium-contrast enhancing and non-enhancing regions) samples were obtained intra-operatively from each patient on the […] on the planned operation day. Blood was centrifuged at 4 °C and 3,000 r/min for 10 min; plasma was subsequently collected. Brain tumors were resected 7–9 h after the last dose was administered. Once resected, the tissue samples were rinsed with PBS, paper dried, and freshly frozen in liquid nitrogen. The samples were then stored at −80 °C in a freezer for later analysis.
# [5] = rat; cited from earlier work
# [6] = Equilibrium dialysis, fraction unbound in plasma; format: in vitro ADME, human; conditions: pH 7.4, 16 h equilibrium dialysis
# Procedure: as §1, §2, §4
# [7] = Equilibrium dialysis, fraction unbound in brain homogenate; format: in vitro ADME, human; conditions: pH 7.4; human brain homogenate spiked at 20 and 200 nM; 16 h equilibrium dialysis; read-out: Fraction unbound (fu), Brain
# Procedure: as §1, §2, §3
# [8] = mouse; cited from earlier work
# [9] = design: method as in investigational brochures; conditions: ref investigational brochures; cited from earlier work
smiles,measurement,setting,value
CCN1CCN(Cc2ccc(Nc3ncc(F)c(-c4cc(F)c5nc(C)n(C(C)C)c5c4)n3)nc2)CC1 [Abemaciclib],"fu, plasma (previously published)",[1],0.027
same,"Distribution (LogD, pH7.4), experimentally measured (value in parenthesis)",[2]; pH 7.4,2.70
same,"Lipophilicity, experimentally measured (value in parenthesis)",[2]; ref [12],3.36
same,"Freeze-thaw stability, Accuracy",[3]; HQC 400.0 nM,106.8%
same,"Freeze-thaw stability, Difference",[3]; HQC 400.0 nM,−3.2%
same,"Freeze-thaw stability, Accuracy",[3]; LQC 0.6 nM,104.4%
same,"Freeze-thaw stability, Difference",[3]; LQC 0.6 nM,−5.7%
same,"Benchtop stability, Accuracy",[3]; HQC 400.0 nM,97.3%
same,"Benchtop stability, Difference",[3]; HQC 400.0 nM,−3.7%
same,"Benchtop stability, Accuracy",[3]; LQC 0.6 nM,108.3%
same,"Benchtop stability, Difference",[3]; LQC 0.6 nM,6.7%
same,"Processed sample stability, Accuracy",[3]; HQC 400.0 nM,99.6%
same,"Processed sample stability, Difference",[3]; HQC 400.0 nM,−1.4%
same,"Processed sample stability, Accuracy",[3]; LQC 0.6 nM,104.5%
same,"Processed sample stability, Difference",[3]; LQC 0.6 nM,3.0%
same,"Autosampler stability (5 °C), Accuracy",[3]; HQC 400.0 nM,102.8%
same,"Autosampler stability (5 °C), Difference",[3]; HQC 400.0 nM,3.3%
same,"Autosampler stability (5 °C), Accuracy",[3]; LQC 0.6 nM,108.3%
same,"Autosampler stability (5 °C), Difference",[3]; LQC 0.6 nM,13.8%
same,"Long-term stability (−20 °C), Difference",[3]; HQC 400.0 nM,−1.5%
same,"Long-term stability (−20 °C), Difference",[3]; LQC 0.6 nM,−6.9%
same,fraction unbound at 16 h,"[4]; pH 7.4, gadolinium contrast enhancing GBM region, read-out: Fraction unbound (fu), GBM (E)",0.014
same,fraction unbound at 16 h,"[4]; pH 7.4, gadolinium contrast non-enhancing GBM region, read-out: Fraction unbound (fu), GBM (NE)",0.011
same,"fu, brain",[5],0.0043
same,fraction unbound at 16 h,"[6]; human, plasma of five GBM patients, read-out: Fraction unbound (fu), Plasma (patients)",0.026
same,fraction unbound at 16 h,"[6]; pooled human plasma spiked at 20 and 200 nM, read-out: Fraction unbound (fu), Plasma (pooled)",0.026
same,fraction unbound at 16 h,[7],0.013
same,"fu, brain",[8],0.0079
same,pKa (strongest basic),[9],7.95

# Source: article PMC9463526 (Journal of Pharmaceutical Analysis, 2022)
